Values after ≈ are worked out from the molar mass of the structure shown. Square brackets hold non-standard residues; d marks the D form. Peptide text beside a SMILES is read from it. Ac6c = NC1(C(=O)O)CCCCC1
Key:
S. typhimurium G10215 = conditions: G10215, 16 h
[1] = Gross necropsy of surviving mice three days post-infection; format: in vivo, CD-1 mice; conditions: 10 or 20 mg/kg ip
Procedure: (§1) As peptide drugs, such as antimicrobial peptides, are predominantly cleared through the kidneys (Klootwijk et al., 1997. J. Clin. Endocrinol. Metab. 82: 3068-3073) and the kidney functions of mice are 20-fold faster than those of humans, CD-1 female mice of 15-20 g were pretreated with 18 mg/kg cisplatin for 3 days to impair kidney clearance similar to the levels observed in humans (Mathe et al., 2006. Lab. Anim. 40: 296-300) before they were challenged intraperitoneally (ip) with 10^8 CFU per g mouse of an extended-spectrum β-lactamase producing E. coli strain (designation 5770). Four, 8 and 12 hours after challenge 10 or 20 mg/kg peptide Chex1-Arg20 or 40 mg/kg imipenem (as a positive control) were administered ip to 10 mice in each group. Imipenem is a broad spectrum β-lactam antibiotic. Prior to drug administration at all three timepoints, blood was taken from the tail vein of 3-5 mice for determining blood bacterial counts. […] Antimicrobials were administered ip 4 hours after challenge 3 times in 4 hour intervals. Blood was taken immediately before antimicrobial treatments. Numbers in parentheses indicate the number of mice with <10^3 CFU/mL. Bacterial counts were determined 10 times from different dilution of blood from 5 mice in each group in each timepoints.
The skin was smooth, and healthy liver, lungs, spleen and kidneys were registered.

[2] = tested on: extended-spectrum β-lactamase producing E. coli strain (designation 5770); test: Systemic infection model, cisplatin-pretreated CD-1 mice, blood bacterial counts; format: in vivo
Procedure: as §1

E. coli HK101 = conditions: quarter strength Mueller-Hinton broth, overnight, 37° C.
Text: To investigate the activity of the A3-APO metabolites, Chex1-Arg20 single chain unit and an Arg7-Arg20 common cleavage fragment were synthesized and […], a true measure of potential clinical viability (Otvos et al., 2005. J. Med. Chem. 48: 5349-5359). The peptides of the invention were made on a CEM Liberty automated synthesizer with standard Fmoc-chemistry. The peptides were detached from the resin with the carboxyl terminus of the C-terminal Arg residue being in the form of an amino amide, —C(O)—NH2 (“Chex1-Arg20-NH2” and “Arg7-Arg20-NH2”), while still in the microwave chamber, and were purified by RP-HPLC. […] The biological studies carried out on chemically synthesized peptides in this example and succeeding examples were carried out on the C-terminal modified versions of the peptides wherein the C-terminal carboxylic acid function was in the form of an amide, —C(O)—NH2. […] The cell concentrations were estimated by measuring the ultraviolet absorbance at 600 nm and applying the formula cfu/mL=A600(3.8×10^8), where cfu is the number of colony-forming units. […] Cultures were then incubated at 37° C., 5% CO2 for 16-20 h without shaking, and growth inhibition was measured by recording the absorbance at 600 nm using a microplate reader. […]
Following the protocol of Example 2, minimal inhibitory concentrations of the Chex1-Arg20 peptide against selected bacteria was determined. […]

[3] = tested on: Escherichia coli isolates
[4] = tested on: Salmonella typhimurium isolates; conditions: murium isolates

For `CC(C)C[C@H](NC(=O)[C@H](Cc1ccc(O)cc1)NC(=O)[C@@H]1CCCN1C(=O)[C@H](CCCNC(=N)N)NC(=O)[C@@H]1CCCN1C(=O)[C@H](CCCCN)NC(=O)[C@H](CC(=O)O)NC(=O)[C@@H]1CCCN1C(=O)[C@H](CCCNC(=N)N)NC(=O)C1(N)CCCCC1)C(=O)N1CCC[C@H]1C(=O)N[C@@H](CCCNC(=N)N)C(=O)N1CCC[C@H]1C(=O)N[C@@H](CCCNC(=N)N)C(=O)N1CCC[C@H]1C(=O)N1CCC[C@H]1C(=O)N[C@@H](CCCNC(=N)N)C(=O)N1CCC[C@H]1C(=O)N[C@H](C(=O)N[C@@H](CCCNC(=N)N)C(=O)O)C(C)C` [Chex1-Arg20, Chex-Arg-Pro-Asp-Lys-Pro-Arg-Pro-Tyr-Leu-Pro-Arg-Pro-Arg--Pro-Pro-Arg-Pro-Val-Arg] (H-[Ac6c]RPDKPRPYLPRPRPPRPVR-OH; N-terminus and C-terminus assumed), the “MIC against S. typhimurium G10215” value (S. typhimurium G10215) was 4 µg/mL (≈ 1.62 µM), the “internal bleeding (hemolysis)” value [1] was “no signs of internal bleeding” and the “signs of toxicity at gross necropsy” value [1] was “no signs of toxicity”. The bacterial count reduction ([2]; 10 mg/kg) was “approximately 3 log 10 units”, the “Bacterial counts in blood after inoculation/challenge” value ([2]; 10 mg/kg ip, 4 h (blood taken before first dose)) was 3.2 × 10^5 CFU/mL and the “Bacterial counts in blood after inoculation/challenge” value ([2]; 10 mg/kg ip, 8 h) was 8.2 × 10^3 CFU/mL. For the same compound, the “number of mice with <10^3 CFU/mL” value ([2]; 10 mg/kg ip, 8 h) was 1/5, the “Bacterial counts in blood after inoculation/challenge” value ([2]; 10 mg/kg ip, 12 h) was < 1.3 × 10^4 CFU/mL and the “number of mice with <10^3 CFU/mL” value ([2]; 10 mg/kg ip, 12 h) was 1/5. The “effect on mouse blood after a lethal E. coli infection” value ([2]; 20 mg/kg) was “sterilized mouse blood”, the “Bacterial counts in blood after inoculation/challenge” value ([2]; 20 mg/kg ip, 4 h (blood taken before first dose)) was 3.2 × 10^5 CFU/mL and the “Bacterial counts in blood after inoculation/challenge” value ([2]; 20 mg/kg ip, 8 h) was 5.5 × 10^4 CFU/mL. For the same compound, the “number of mice with <10^3 CFU/mL” value ([2]; 20 mg/kg ip, 8 h) was 3/5, the “Bacterial counts in blood after inoculation/challenge” value ([2]; 20 mg/kg ip, 12 h) was < 3.7 × 10^3 CFU/mL and the “number of mice with <10^3 CFU/mL” value ([2]; 20 mg/kg ip, 12 h) was 3/5. The bacterial count reduction ([2]; after two doses of 20 mg/kg) was 3.5 log 10 units, the “mice having blood bacterial levels below detection limits” value ([2]; after two doses of 20 mg/kg) was 60% and the “MIC, E. coli HK101” value (E. coli HK101) was 0.5 µg/mL (≈ 0.202 µM). The “minimal bactericidal concentrations (MBC)” value [3] was 2 to 32 µg/mL and the “minimal bactericidal concentrations (MBC)” value [4] was 4 µg/mL (≈ 1.62 µM).

Source: patent publication US8492515B2 (priority 2008, dated 2013)
